Measurements taken from patent EP4741427A1, “GLYCAN, PREPARATION METHOD THEREFOR AND USE THEREOF, AND ANTI-TUMOR DRUG” (Peking University, priority 2023, dated 2025).

Tests used:
[1] = tested on: Aspc-1; assay: CCK-8 proliferation inhibition of pancreatic cancer cells; assay type: cell-based; conditions: 72 h
From the text: (§1) Three pancreatic cancer cell lines (Aspc-1, Bxpc-3, Panc-1) and the hepatocyte cell line LO2 used in the experiments were provided by Peking University People's Hospital and the Institute of Materia Medica, Chinese Academy of Medical Sciences. The culture conditions for Aspc-1 and Bxpc-3 cells were RPMI 1640 medium (Gibco, Thermo Fisher Scientific, USA) supplemented with 10% fetal bovine serum (HyClone, Thermo Fisher Scientific, USA) and 1% penicillin/streptomycin (Life Technologies, Thermo Fisher Scientific, USA). The culture conditions for Panc-1 and LO2 cells were DMEM medium (Gibco, Thermo Fisher Scientific, USA) supplemented with 10% fetal bovine serum (HyClone, Thermo Fisher Scientific, USA) and 1% penicillin/streptomycin (Life Technologies, Thermo Fisher Scientific, USA). Cell culture was conducted at 37°C with adequate humidity and 5% CO2 concentration.
(§2) Three types of pancreatic cancer cells (Aspc-1, Bxpc-3, Panc-1) were seeded into 96-well plates at a density of 5×10^3 cells/well (100 µL). After the cells adhered, gemcitabine (50 µM), compound 2-11 (140-mer 2-11, 50 µM), 2-30 (70-mer 2-30, 50 µM), 2-31 (40-mer 2-31, 50 µM), 2-32 (30-mer 2-32, 50 µM), 2-33 (10-mer A 2-33, 50 µM), 2-34 (10-mer B 2-34, 50 µM), 2-35 (5-mer A 2-35, 50 µM), 2-36 (5-mer B 2-36, 50 µM), and 2-37 (5-mer C 2-37, 50 µM) were added, respectively. The cells were co-incubated for 72 h. Then, 10 µL of CCK-8 reagent was added to each well and incubated at 37°C for 2 h. After thorough mixing, the absorbance at 450 nm was measured by using a microplate reader. A cell survival rate was calculated by using the following formula: Cell survival rate(%) = (ODsample−OD_blank)/(OD_control−OD_blank) × 100%. [formula]
(§3) Three types of pancreatic cancer cells (Aspc-1, Bxpc-3, and Panc-1) were seeded into 96-well plates at a density of 5×10^3 cells/well (100 µL). After the cells adhered, different concentrations of compound 2-34 (3.125 µM, 6.25 µM, 12.5 µM, 25 µM, 50 µM, 100 µM) were added. The cells were co-incubated for 72 h. Then, 10 µL of CCK-8 reagent was added to each well and incubated at 37°C for 2 h. After thorough mixing, the absorbance at 450 nm was measured by using a microplate reader, and the cell survival rate was calculated.

[2] = tested on: Panc-1; assay: as above; assay type: cell-based; conditions: 72 h
From the text: as §1, §2, §3

[3] = tested on: Bxpc-3; assay: as above; assay type: cell-based; conditions: 72 h
From the text: as §1, §2, §3

[4] = tested on: LO2 hepatocytes; assay: CCK-8 cytotoxicity on hepatocytes; assay type: cell-based, human; conditions: concentration up to 100 µM, 72 h
From the text: as §1
LO2 hepatocytes were seeded into 96-well plates at a density of 5×10^3 cells/well (100 µL). After the cells adhered, different concentrations of compound 2-34 (3.125 µM, 6.25 µM, 12.5 µM, 25 µM, 50 µM, 100 µM) and the positive control drug gemcitabine (3.125 µM, 6.25 µM, 12.5 µM, 25 µM, 50 µM, 100 µM) were added, respectively. The cells were co-incubated for 72 h. […] After thorough mixing, the absorbance at 450 nm was measured by using a microplate reader, and the cell survival rate was calculated.

[5] = tested on: Panc-1 cells; assay: Apoptosis, Annexin V-FITC/PI double staining with flow cytometry; assay type: cell-based; conditions: 72 h
Description: Pancreatic cancer Panc-1 cells were seeded into 24-well plates at a density of 3×10^4 cells/well. After the cells adhered, different concentrations of compound 2-34 (25 µM, 50 µM, 100 µM) were added and co-incubated for 72 h. All cells were collected, washed 2 times with PBS, and resuspended in binding buffer (Beyotime, Shanghai, China). Then, 5 µL of Annexin V-FITC (fluorescein isothiocyanate) and 10 µL of PI (propidium iodide) dye were added in sequence, and the cells were stained in the dark for 20 min. The apoptosis rate was detected by using a flow cytometer (Beckman CytoFLEX), and the specific apoptosis ratio was analyzed by using CytoFLEX software.

[6] = tested on: Panc-1 cells; assay: Cell cycle, PI staining with flow cytometry; assay type: cell-based; conditions: 72 h
Description: Pancreatic cancer Panc-1 cells were seeded into 24-well plates at a density of 6×10^4 cells/well. After the cells adhered, different concentrations of compound 2-34 (25 µM, 50 µM, 100 µM) were added and co-incubated for 72 h. All cells were collected, washed 2 times with PBS, and fixated in 70% (volume fraction) ethanol overnight. The fixated cells were collected, washed 2 times with PBS, and stained with PI staining solution containing RNase (ribonuclease) in the dark for 30 min. The nucleic acid content in the cells was detected by using a flow cytometer, and the percentage of cells in each cycle phase was analyzed by using ModFit software.

Compound | inhibition at 50 µM ([1]; Homo sapiens, ASPC1, Aspc-1, 50 µM, read-out: inhibition rates) [%] | inhibition at 50 µM ([2]; Homo sapiens, Panc-1, 50 µM, read-out: inhibition rates) [%] | inhibition rates ([1]; Aspc-1, 50 µM) [%] | proliferation inhibition, concentration dependence ([1]; Aspc-1, 3.125-100 µM) | inhibition rates ([3]; Bxpc-3, 50 µM) [%] | proliferation inhibition, concentration dependence ([3]; Bxpc-3, 3.125-100 µM) | inhibition rates ([2]; Panc-1, 50 µM) [%] | proliferation inhibition, concentration dependence ([2]; Panc-1, 3.125-100 µM) | cytotoxicity towards the growth of LO2 hepatocytes [4] | apoptosis rate ([5]; Panc-1, 25 µM) [%] | apoptosis rate ([5]; Panc-1, 50 µM) [%] | apoptosis rate ([5]; Panc-1, 100 µM) [%] | number of cells in the G2 phase ([6]; Panc-1, 25 µM, 50 µM, 100 µM) | proportion of cells in the G1 phase ([6]; Panc-1, 25 µM) [%] | proportion of cells in the S phase ([6]; Panc-1, 25 µM) [%] | proportion of cells in the G1 phase ([6]; Panc-1, 50 µM) [%] | proportion of cells in the S phase ([6]; Panc-1, 50 µM) [%] | proportion of cells in the G1 phase ([6]; Panc-1, 100 µM) [%] | proportion of cells in the S phase ([6]; Panc-1, 100 µM) [%]
Nc1ccn([C@@H]2O[C@H](CO)[C@@H](O)C2(F)F)c(=O)n1 [gemcitabine, reference compound] | 61.4 | 23.2 | – | – | – | – | – | – | – | – | – | – | – | – | – | – | – | – | –
Octylβ-D-galactopyranosyl-(1→6)-β-D-galactopyranosyl-(1→6)-β-D-galactopyranosyl-( 1→6)-{α-L-arabinofuranosyl-(1→5)-α-L-arabinofuranosyl-(1→5)-α-L-arabinofuransyl-(1→5)-[ β-D-galactopyranosyl-(1→3)]-α-L-arabinofuranosyl-(1→3)-β-D-galactopyranosyl-(1→3)}-β-D-galactopyranoside [compound 2-34] | – | – | 74.9 | significant concentration dependence | 29.5 | significant concentration dependence | 72.1 | significant concentration dependence | no cytotoxicity | 31.99 | 31.92 | 67.59 | remains relatively stable with minor changes | 51.33 | 22.19 | 46.99 | 27.66 | 42.43 | 36.29
